{"source": "patent US20250360167A1", "about": "(Keryx Biopharmaceuticals, Inc., priority 2013, published 2025)", "type_in_all_cases": "in vivo, human", "key": {"TSAT": {"tested_on": "TSAT", "assay": "Phase 2 trial (Example 2): TSAT", "text": "(§1) Change in serum phosphorus, ferritin and TSAT levels from baseline to end of treatment after 12 weeks are the primary endpoints.\n(§2) The co-primary efficacy endpoints of this trial were the mean changes in serum phosphorus and TSAT from baseline to the end of the 12-week treatment period versus placebo in the ITT group."}, "hemoglobin": {"tested_on": "hemoglobin", "assay": "Phase 2 trial (Example 2): hemoglobin", "details": "ITT group, n = 72", "text": "The key secondary endpoints of the study were the mean changes in ferritin, hemoglobin and FGF-23 from baseline to the end of the 12-week treatment period versus placebo in the ITT group."}, "serum bicarbonate": {"tested_on": "serum bicarbonate", "assay": "Phase 3 trial (Example 1): serum bicarbonate concentration", "details": "for Serum Bicarbonate Concentration, Mean / Serum Bicarbonate Concentration, Median / Serum Bicarbonate Concentration, LS Mean / Serum Bicarbonate Concentration, Change from Baseline, Mean / Serum Bicarbonate Concentration, Change from Baseline, Median / Serum Bicarbonate Concentration, Treatment Differences, LS Mean (KRX-0502) − LS Mean (control), (SE): Table 18; for Serum Bicarbonate Concentration, LS Mean: ANCOVA", "experimental": "Serum bicarbonate was performed at a local laboratory and was done at the Randomization Visit (Visit 4); at Visits 11 (Week 12), 14 (Week 24), 17 (Week 36), 20 (Week 48) and 21 (Week 52) during the Safety Assessment Period; and at Visit 25 (Week 56) of the Efficacy Assessment Period.\n• 1. Change in serum calcium concentration at Weeks 12, 24, 36, 48, and 52 as compared to baseline (Visit 4). This variable will be analyzed using LOCF methodology. ANCOVA will be employed. The model will include treatment (fixed effect), and baseline (covariate). • 2. Change in ferritin, and TSAT at Weeks 12, 24, 36 and 48 as compared to baseline (Visit 4). This variable will be analyzed using LOCF methodology. ANCOVA will be employed. The model will include treatment (fixed effect), and baseline (covariate). • 3. Change in serum iron and TIBC at Weeks 12, 24, 36, 48, and 52 as compared to baseline (Visit 4). This variable will be analyzed using LOCF methodology. ANCOVA will be employed. The model will include treatment (fixed effect), and baseline (covariate). • 4. Change in Ca x P product at Weeks 12, 24, 36, 48, and 52 as compared to baseline (Visit 4). This variable will be analyzed using LOCF methodology. ANCOVA will be employed. The model will include treatment (fixed effect), and baseline (covariate). • 5. Change in iPTH at Weeks 12, 36, 52, and 56 as compared to baseline (Visit 4). This variable will be analyzed using LOCF methodology. ANCOVA will be employed. The model will include treatment (fixed effect), and baseline (covariate). • 6. Change in serum […], vitamin A, vitamin B-12, vitamin E, vitamin K and folic acid at Weeks 12, 36, and 52 as compared to baseline (Visit 4). This variable will be analyzed using LOCF methodology. ANCOVA will be employed. The model will include treatment (fixed effect), and baseline (covariate). • 7. Change in serum bicarbonate concentration at Weeks 12, 36, and 52 as compared to baseline (Visit 4). This variable will be analyzed using LOCF methodology. ANCOVA will be employed. The model will include treatment (fixed effect), and baseline (covariate). • 8. Change in IV iron intake at Weeks 12, 24, 36, 48, and 52 as compared to baseline (Visit 4). This variable will be analyzed using LOCF methodology. ANCOVA will be employed. The model will include treatment (fixed effect), and baseline (covariate). • 9. Change in the use of EPO (ESA) administered at Weeks 12, 24, 36, 48, and 52 as compared to baseline (Visit 4). This variable will be analyzed using LOCF methodology. ANCOVA will be employed. The model will include treatment (fixed effect), and baseline (covariate). • 10. Change in the use of Vitamin D supplementation (and its analogs) and Sensipar (cinacalcet) at Weeks 12, 24, 36, 48, and 52 as compared to baseline (Visit 4). This variable will be analyzed using LOCF methodology. ANCOVA will be employed. The model will include treatment (fixed effect), and baseline (covariate). • 11. Change in LDL, HDL, and triglycerides at Weeks 12, 36, and 52 as compared to baseline (Visit 4). This variable will be analyzed using LOCF methodology. ANCOVA will be employed. The model will include treatment (fixed effect), and baseline (covariate)."}, "serum phosphorus": {"tested_on": "serum phosphorus", "assay": "Phase 2 trial in anemic Stage III to V CKD subjects not on dialysis (Example 2): serum phosphorus", "experimental": "This trial is a three-period clinical trial consisting of a screening period, a two-week washout period, and a 12-week treatment period.\nIf a subject has a serum phosphorus ≥6.0 mg/dL for at least two visits in a row during the 12-week treatment period, the subject is considered a treatment failure, stops study drug and exits the study.\nThe target level for serum phosphorus is 3.0 to 4.0 mg/dL. Subjects are titrated as follows: • 1. If serum phosphorus is at target (3.0 to 4.0 mg/dL), no adjustment in dose is required. • 2.\nas §1, §2"}, "[1]": {"assay": "Phase 3 trial (Example 1): hospitalizations, cardiac severe adverse events", "experimental": "Safety was assessed by recording and monitoring adverse events, concomitant medication use, physical examinations, and sequential blood by treatment assignment. Rates of adverse events were summarized overall and by organ system class, preferred term, severity, and suspected relationship to study drug by treatment assignment. AEs were summarized for the Washout Period, Safety Assessment Period, and Efficacy Assessment Period separately by treatment assignment. The changes from baseline in laboratory parameters over time were summarized by treatment assignment."}, "[2]": {"details": "Week 12, last observation carried forward, ITT group, n = 72"}, "[3]": {"details": "Day 0 Baseline, Safety Assessment Period"}, "[4]": {"details": "Active Control n = 149, Ferric Citrate n = 289"}, "[5]": {"details": "Ferric Citrate vs Active Control"}, "[6]": {"details": "percent of patients, Ferric Citrate N = 289, Active Control N = 149"}}}
{"substance": "iron (+3), x (1, 2, 3-propanetricarboxylic acid, 2-hydroxy-), y (H2O) [KRX-0502]", "values": [{"measurement": "TSAT, Baseline", "setting": "TSAT; Baseline, ITT group, n = 72", "result": 22, "unit": "%"}, {"measurement": "TSAT, End of Treatment (Week 12)", "setting": "TSAT; [2]", "result": 32, "unit": "%"}, {"measurement": "ending TSAT level at Visit 11 (Week 12)", "setting": "TSAT; sample size assumption", "result": "approximately 25%"}, {"measurement": "Mean Hemoglobin, Baseline", "setting": "hemoglobin; Baseline", "result": 10.5, "unit": "g/dL"}, {"measurement": "Mean Hemoglobin, End of Treatment (Week 12)", "setting": "hemoglobin; Week 12, last observation carried forward", "result": 11.0, "unit": "g/dL"}, {"measurement": "Serum Bicarbonate Concentration, Mean", "setting": "serum bicarbonate; [3]", "result": 23.92}, {"measurement": "Serum Bicarbonate Concentration, Median", "setting": "serum bicarbonate; [3]", "result": 24.00}, {"measurement": "Serum Bicarbonate Concentration, LS Mean", "setting": "serum bicarbonate; Week 12", "result": 25.60}, {"measurement": "Serum Bicarbonate Concentration, Change from Baseline, Mean", "setting": "serum bicarbonate; Week 12", "result": 1.57}, {"measurement": "Serum Bicarbonate Concentration, Change from Baseline, Median", "setting": "serum bicarbonate; Week 12", "result": 1.05}, {"measurement": "Serum Bicarbonate Concentration, Mean", "setting": "serum bicarbonate; Week 12", "result": 25.63}, {"measurement": "Serum Bicarbonate Concentration, Median", "setting": "serum bicarbonate; Week 12", "result": 25.00}, {"measurement": "Serum Bicarbonate Concentration, Treatment Differences, LS Mean (KRX-0502) − LS Mean (control), (SE)", "setting": "serum bicarbonate; Week 12", "result": "−0.72 (0.37)"}, {"measurement": "Serum Bicarbonate Concentration, LS Mean", "setting": "serum bicarbonate; Week 24", "result": 25.35}, {"measurement": "Serum Bicarbonate Concentration, Change from Baseline, Mean", "setting": "serum bicarbonate; Week 24", "result": 1.48}, {"measurement": "Serum Bicarbonate Concentration, Change from Baseline, Median", "setting": "serum bicarbonate; Week 24", "result": 1.00}, {"measurement": "Serum Bicarbonate Concentration, Mean", "setting": "serum bicarbonate; Week 24", "result": 25.39}, {"measurement": "Serum Bicarbonate Concentration, Median", "setting": "serum bicarbonate; Week 24", "result": 25.45}, {"measurement": "Serum Bicarbonate Concentration, Treatment Differences, LS Mean (KRX-0502) − LS Mean (control), (SE)", "setting": "serum bicarbonate; Week 24", "result": "−0.39 (0.38)"}, {"measurement": "Serum Bicarbonate Concentration, LS Mean", "setting": "serum bicarbonate; Week 36", "result": 25.22}, {"measurement": "Serum Bicarbonate Concentration, Change from Baseline, Mean", "setting": "serum bicarbonate; Week 36", "result": 1.36}, {"measurement": "Serum Bicarbonate Concentration, Change from Baseline, Median", "setting": "serum bicarbonate; Week 36", "result": 1.00}, {"measurement": "Serum Bicarbonate Concentration, Mean", "setting": "serum bicarbonate; Week 36", "result": 25.27}, {"measurement": "Serum Bicarbonate Concentration, Median", "setting": "serum bicarbonate; Week 36", "result": 25.00}, {"measurement": "Serum Bicarbonate Concentration, Treatment Differences, LS Mean (KRX-0502) − LS Mean (control), (SE)", "setting": "serum bicarbonate; Week 36", "result": "−0.15 (0.34)"}, {"measurement": "Serum Bicarbonate Concentration, LS Mean", "setting": "serum bicarbonate; Week 48", "result": 24.78}, {"measurement": "Serum Bicarbonate Concentration, Change from Baseline, Mean", "setting": "serum bicarbonate; Week 48", "result": 0.91}, {"measurement": "Serum Bicarbonate Concentration, Change from Baseline, Median", "setting": "serum bicarbonate; Week 48", "result": 1.00}, {"measurement": "Serum Bicarbonate Concentration, Mean", "setting": "serum bicarbonate; Week 48", "result": 24.81}, {"measurement": "Serum Bicarbonate Concentration, Median", "setting": "serum bicarbonate; Week 48", "result": 25.00}, {"measurement": "Serum Bicarbonate Concentration, Treatment Differences, LS Mean (KRX-0502) − LS Mean (control), (SE)", "setting": "serum bicarbonate; Week 48", "result": "−0.52 (0.36)"}, {"measurement": "Serum Bicarbonate Concentration, LS Mean", "setting": "serum bicarbonate; Week 52", "result": 24.60}, {"measurement": "Serum Bicarbonate Concentration, Change from Baseline, Mean", "setting": "serum bicarbonate; Week 52", "result": 0.71}, {"measurement": "Serum Bicarbonate Concentration, Change from Baseline, Median", "setting": "serum bicarbonate; Week 52", "result": 1.00}, {"measurement": "Serum Bicarbonate Concentration, Mean", "setting": "serum bicarbonate; Week 52", "result": 24.63}, {"measurement": "Serum Bicarbonate Concentration, Median", "setting": "serum bicarbonate; Week 52", "result": 25.00}, {"measurement": "Serum Bicarbonate Concentration, Treatment Differences, LS Mean (KRX-0502) − LS Mean (control), (SE)", "setting": "serum bicarbonate; Week 52", "result": "−0.70 (0.44)"}, {"measurement": "mean increase in serum bicarbonate concentration", "setting": "serum bicarbonate; administered for a period of 52 weeks, stated as embodiment", "result": 0.71, "unit": "mEq/L"}, {"measurement": "Mean Serum Phosphorus, Baseline", "setting": "serum phosphorus; Baseline, ITT group, n = 72", "result": 4.5, "unit": "mg/dL"}, {"measurement": "Mean Serum Phosphorus, End of Treatment (Week 12)", "setting": "serum phosphorus; [2]", "result": 3.9, "unit": "mg/dL"}, {"measurement": "co-primary (serum phosphorus, TSAT) and key secondary endpoints (ferritin, hemoglobin, FGF-23)", "setting": "serum phosphorus; mean changes baseline to end of 12-week treatment vs placebo, ITT, 141 subjects", "result": "met both co-primary and all key secondary endpoints with highly statistically significant results"}, {"measurement": "ending serum phosphorus at Visit 11 (Week 12)", "setting": "serum phosphorus; sample size assumption", "result": "approximately 4.3 mg/dL"}, {"measurement": "Average Hospitalizations per Subject", "setting": "[1]; [4]", "result": 0.63}, {"measurement": "Subjects with One or More Hospitalizations, % of Study Subjects", "setting": "[1]; [4]", "result": 34.6, "unit": "%"}, {"measurement": "Total Hospitalizations", "setting": "[1]; [4]", "result": 181}, {"measurement": "Average Hospitalizations per Subject, % Improvement", "setting": "[1]; [5]", "result": 24.1, "unit": "%"}, {"measurement": "Average Hospitalizations per Subject, Difference", "setting": "[1]; [5]", "result": "−0.20"}, {"measurement": "Subjects with One or More Hospitalizations, Relative % Difference", "setting": "[1]; Ferric Citrate vs Active Control, p = 0.024", "result": "−24.2", "unit": "%"}, {"measurement": "hospitalizations related to cardiac severe adverse events", "setting": "[1]; as compared to Active Control", "result": "able to reduce hospitalizations related to cardiac severe adverse events"}, {"measurement": "Subjects with One or More Hospitalizations", "setting": "[1]; number of subjects, Active Control n = 149, Ferric Citrate n = 289", "result": 100}, {"measurement": "Cardiac Disorders, %", "setting": "[1]; [6]", "result": 4.8, "unit": "%"}, {"measurement": "Gastrointestinal Disorders, %", "setting": "[1]; [6]", "result": 6.2, "unit": "%"}, {"measurement": "Infections, %", "setting": "[1]; [6]", "result": 12.1, "unit": "%"}]}
